Target: Wee1-like protein kinase (Homo sapiens, UniProt P30291)
Assay: In Vitro Enzymatic Inhibitory Activity Assay: Experimental Reagents:Basic reaction buffer: 20 mM hydroxyethylpiperazine ethanesulfuric acid (pH 7.5), 10 mM magnesium chloride, 1 mM EGTA, 0.02% Brij35, 0.02 mg/mL bovine serum albumin, 0.1 mM Na3VO4, 2 mM DTT, 1% DMSOEnzyme: Wee-1 concentration is 150 nMMatrix: MBP concentration is 20 μMCompound Treatment:The tested compound was formulated into a 5 mM solution with 100% DMSO, and a 10 points 3-fold gradient dilution was performed with DMSO through an automated pipetting station epMotion 5070.Experiment Procedure:1. Fresh matrix configuration reaction buffer was prepared;2. The Wee-1 was added into the matrix solution and shaked gently;3. DMSO solution of the compound were added into the kinase reaction mixture using an acoustic technique (Echo 550; nanoliter range) and incubated for 20 minutes at room temperature;4. 33P-ATP (specific activity, 10 μCi/μL) was added into the reaction mixture to stimulate the reaction;5. Incubated for 2 hours at room temperature;6. Kinase activity was detected by filter-binding method.

Wee1-like protein kinase, sequence (P30291 whole entry): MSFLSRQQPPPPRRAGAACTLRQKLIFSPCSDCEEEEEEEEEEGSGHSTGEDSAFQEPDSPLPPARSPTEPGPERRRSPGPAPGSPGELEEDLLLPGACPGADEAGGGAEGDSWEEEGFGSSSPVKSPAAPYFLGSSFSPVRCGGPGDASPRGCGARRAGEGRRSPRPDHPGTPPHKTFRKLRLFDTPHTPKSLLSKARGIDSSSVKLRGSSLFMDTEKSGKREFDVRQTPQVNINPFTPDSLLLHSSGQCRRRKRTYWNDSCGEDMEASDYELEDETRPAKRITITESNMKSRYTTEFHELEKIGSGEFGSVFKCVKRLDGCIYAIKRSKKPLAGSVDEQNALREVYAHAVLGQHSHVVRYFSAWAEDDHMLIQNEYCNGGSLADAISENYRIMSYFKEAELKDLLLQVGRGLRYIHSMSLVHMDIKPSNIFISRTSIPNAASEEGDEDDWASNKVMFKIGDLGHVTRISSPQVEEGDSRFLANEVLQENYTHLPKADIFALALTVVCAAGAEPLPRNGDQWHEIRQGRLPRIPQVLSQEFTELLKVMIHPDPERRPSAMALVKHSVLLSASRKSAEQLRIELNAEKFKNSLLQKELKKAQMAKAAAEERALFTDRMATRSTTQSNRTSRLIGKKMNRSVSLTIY

Structure (SMILES) | IC50
C=CCn1c(=O)c2cnc(Nc3ccc(N4CCC5(CCN(C)CC5)CC4)cn3)nc2n1-c1cccc(C(C)(C)O)n1 | 64.6 nM
C=CCn1c2nc(Nc3ccc(N4CCC5(CCN(C)CC5)CC4)cc3)ncc2c(=O)n1-c1ccccc1Cl | 620 nM
C=CCn1c(=O)c2cnc(Nc3ccc(N4CCC5(CCN(C)CC5)CC4)cc3)nc2n1-c1cnccn1 | 90.4 nM

— ChEMBL document CHEMBL5728354, “1,2-dihydro-3H-pyrazolo[3,4-d]pyrimidin-3-one derivative as Wee1 inhibitor” (2021)
